From US6080871A, “Sulfonamides and sulfamides as H3 receptor antagonists” (James Black Foundation Limited, priority 1996, dated 2000)
Like-named read-outs stand apart in the source and are kept apart here.

Key:
H3 receptor = target: T1, H3 receptor (Cavia porcellus, UniProt Q9JI35); assay: H3 receptor bioassay (functional assay), guinea pig ileal longitudinal muscle myenteric plexus; type: cell-based; settings: for Kb: read-out: pKB (functional assay) (converted)
T1 construct: the longitudinal muscle layer and adhering myenteric plexus was teased away; from tissue; host or cells: ileal longitudinal muscle with adhering myenteric plexus of male Dunkin-Hartley guinea pigs
T1 sequence (Q9JI35 whole entry): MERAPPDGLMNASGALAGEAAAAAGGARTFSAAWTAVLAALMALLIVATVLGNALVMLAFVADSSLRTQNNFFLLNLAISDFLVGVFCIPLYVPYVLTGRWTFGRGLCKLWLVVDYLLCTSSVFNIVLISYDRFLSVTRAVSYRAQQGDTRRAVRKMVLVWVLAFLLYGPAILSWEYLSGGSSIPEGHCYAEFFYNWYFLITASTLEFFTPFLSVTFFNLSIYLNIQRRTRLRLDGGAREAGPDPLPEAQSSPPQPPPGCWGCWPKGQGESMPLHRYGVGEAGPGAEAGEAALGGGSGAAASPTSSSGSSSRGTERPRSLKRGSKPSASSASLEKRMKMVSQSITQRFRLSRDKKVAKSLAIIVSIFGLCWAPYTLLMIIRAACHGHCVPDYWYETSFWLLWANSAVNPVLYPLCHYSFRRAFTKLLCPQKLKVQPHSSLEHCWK
Experimental: The biological activity of the compounds of the examples was measured using the ileal longitudinal muscle, myenteric plexus assay described by Paton and Aboo Zar (J. Physiol. 194, 13-33 (1968)). Male Dunkin-Hartley guinea pigs (250-300 g) were employed. Briefly, a 50 cm portion of ileum proximal to the caecum was removed, after discarding the terminal 20 cm. Ileal segments (3 cm) were cleaned by passing Krebs-Henseleit buffer containing 3 μM mepyramine gently through the ileum using a Pasteur pipette (size: 13.8 cm length, 0.65 cm diameter). To avoid unnecessary damage to the tissue, Krebs-Henseleit buffer was passed through the ileal segment, while it was lying horizontally on a petri dish. Therefore, the ileum was not over-distended and the buffer flowed through with ease. Each segment was then passed over a Pasteur pipette and the longitudinal muscle layer and adhering myenteric plexus was teased away using moist cotton wool, by stroking tangentially away from the mesenteric attachment. The tissues were suspended in 20 ml organ baths containing Krebs-Henseleit buffer at 37±1° C. and gassed with […]. The tissues were ligated to two parallel stainless steel wires, situated between two platinum electrodes (0.76 cm length, 0.06 cm diameter). All measurements were recorded isometrically (Grass FTO3 transducer). Following an initial loading tension of 1 g, the tissues were stimulated with electrical pulses at a frequency of 0.1 Hz and a pulse duration of 0.5msec, as described by Kosterlitz & Watt (1968). Initially, the tissues were stimulated at supramaximal (1.3 fold times maximal) voltage for a period of 30 min and then the tissues were washed and re-stimulated. A "sighter dose" of the selective histamine H3 -receptor agonist, R-(α)-methylhistamine(0.3 μM) (Arrang et al., 1987), was administered. Upon generation of response, the "sighter dose" was removed from the tissues by "washout" (6 washes over 60 min) and during this period the electrical stimulation was switched off. The tissues were then re-stimulated and allowed to stabilise prior to the addition of drug treatments, which were allocated on a randomised block basis to the organ baths. Following the incubation period, a single cumulative E/[A] curve was obtained. The experimental E/[A] curve data was expressed as the percentage inhibition of the peak height of electrically-stimulated contraction. Antagonist affinity values were calculated from the degree of rightward shift of the R-(α)-methylhistamine E/[A] curves using Schild's methods (Arunlatcshama & Schild, 1949).
(§1) Typical variance in the functional assay is ±0.15 log units. Typical variance in the binding assay is ±0.12 log units. This means that if the discrepancy between the two assays is greater than about 0.5 log units, then this difference on average is significant.

Histamine H3 = target: T2, Histamine H3 (Cavia porcellus, UniProt Q9JI35); assay: Histamine H3 radioligand binding assay, [3H]-R-α-methylhistamine, guinea pig ileum longitudinal muscle myenteric plexus membranes
T2 construct: ileum longitudinal muscle myenteric plexus membranes; from tissue; host or cells: ileum longitudinal muscle myenteric plexus membranes of male Dunkin Hartley guinea pigs
T2 sequence (Q9JI35 whole entry): as above
Experimental: Histamine H3 Radioligand Binding Assay
Male Dunkin Hartley guinea pigs (200-300 g) were used. The small intestine was rapidly removed (cut ~5 cm from caecum and 5 cm from stomach) and placed in ice-cold 20 mM Hepes-NaOH buffer (pH7.4 at 21±3° C.). The tissue was cut into ~10 cm segments, flushed through with ice-cold 20 mM Hepes-NaOH buffer and placed in a beaker containing fresh buffer at 4° C. 10 cm segments of ileum were threaded onto a glass pipette and the longitudinal muscle myenteric plexus was peeled away from the circular muscle using damp cotton-wool. Longitudinal muscle myenteric plexus was immediately placed in ice-cold Viaspan® solution (~100 ml for tissue from 3 guinea pigs) and placed in the refrigerator for 24 hours.
Pre-soaked tissue was weighed and minced with scissors. The tissue was then homogenised in Viaspan® using a polytron (Kinematica AG; PT-DA 3020/2TS, 3×~1-2 s). 50 ml of 500 mM Tris HCl (pH6.9 at 21±3° C.) was added to the tissue and the mixture centrifuged at 39,800×g for 12 min at 4° C. The supernatant was discarded and rehomogenised in 100 ml ice-cold 20 mM Hepes-NaOH buffer (pH7.4 at 21±3° C.) using a teflon-in-glass homogeniser (setting 10; 3×). The homogenate was recentrifuged at 39,800×g and the pellet resuspended in 20 mM Hepes-NaOH buffer (pH7.4 at 21±3° C.), to a tissue concentration of 50 mg.ml^-1, using a polytron (Brinkman, PT10, 3×~1 s).
Guinea pig ileum longitudinal muscle myenteric plexus membranes (400 μl) were incubated for 165 min at 21±3° C. in a final volume of 500 μl with 20 mM Hepes-NaOH buffer containing [^3 H]-R-α-methylhistamine (50 μl; 3 nM) and competing compound. Total and non-specific binding of [^3 H]-R-α-methylhistamine were defined using 50 μl of buffer and 50 μl of 10 μM thioperamide, respectively. The assay was terminated by rapid filtration through Whatman GF/B filters, presoaked (2 hr) in 0. 1% polyethyleneimine,using a Brandell Cell Harvester. The filters were washed (3×3 ml) with ice-cold 50 mM Tris-HCl (pH6.9 at 21±3° C.), transferred into scintillation vials, 5 ml liquid scintillation cocktail was added and after 4 hours the bound radioactivity was determined by counting (4 min) in a Beckman liquid scintillation counter.
Data are analysed using GraphPad prism and the general equation for a competition curve with variable Hill slope (nH).
Y=Non-specific binding+(Total binding-Non-specific binding)/1+10^((logIC.sbsp.50^-X).n.sbsp.H^)
X is the log concentration of competing compound, Y is the binding obtained at each concentration of X, pIC50 is the concentration of the competitor required to compete for half of the specific binding.
The IC50 is converted to the K1 using the Cheng Prusoff equation, […]
IC50 is the concentration of competitor required to compete for half the specific binding, L is the radioligand concentration used, KD is the equilibrium dissociation constant for the radioligand determined by saturation experiments.
as §1

[1] = antagonism of R-(α)-methylhistamine E/[A] curve, Schild's methods, electrically stimulated guinea pig ileum, variance ±0.15 log units
[2] = 3 nM [3H]-R-α-methylhistamine, 165 min, 21±3° C., Cheng Prusoff, variance ±0.12 log units, read-out: pK1 (binding assay) (converted)
[3] = 3 nM [3H]-R-α-methylhistamine, 165 min, 21±3° C., Cheng Prusoff, variance ±0.12 log units

| Kb (H3 receptor; [1]) [nM] | SMILES | other results |
| --- | --- | --- |
| 3.89 | O=S(=O)(NCCCCCc1c[nH]cn1)NCc1ccc(Br)cc1 [Example 64, N-[5-(4(5)-Imidazoyl)pentyl]-N'-(4-bromophenyl)methyl-sulfamide] | Ki (Histamine H3; [2]): 5.01 nM |
| – | O=S(=O)(Cc1ccc(F)cc1)NCCCCc1c[nH]cn1 [Example 79, N-[4-(4(5)-Imidazoyl)butyl]-(4-fluoromethylphenyl)methanesulfonamide] | pK1 (binding assay) (Histamine H3; [3]): 8.13 |
| – | O=S(=O)(NCCc1c[nH]cn1)NCc1ccccc1 [Example 35, N-[2-(4(5)-Imidazoyl)ethyl]-N'-phenylmethyl-sulfamide] | pKB (functional assay) (H3 receptor; [1]): 5.59 |
| 6.31 | O=S(=O)(NCCCCCc1c[nH]cn1)NCc1ccc(Cl)cc1 [Example 12, N-[5-(4(5)-Imidazoyl)pentyl]-N'-(4-chlorophenyl)methyl-sulfamide] | pK1 (binding assay) (Histamine H3; [3]): 8.23 |
| 4070 | O=S(=O)(NCCCc1c[nH]cn1)c1ccc2ccccc2c1 [Example 28, N-[3-(4(5)-Imidazoyl)propyl]-2-naphthalenesulfonamide] | – |
| 1.23 | O=S(=O)(NCCCCc1c[nH]cn1)NCc1ccc(Br)cc1 [Example 45, N-[4-(4(5)-Imidazoyl)butyl]-N'-(4-bromophenyl)methyl-sulfamide] | pK1 (binding assay) (Histamine H3; [3]): 8.71 |
| – | O=S(=O)(NCCCCCCCCCCc1c[nH]cn1)NCc1ccc(Cl)cc1 [Example 40, N-[10-(4(5)-Imidazoyl)decyl]-N'-(4-chlorophenyl)methyl-sulfamide] | pK1 (binding assay) (Histamine H3; [3]): 6.02 |
| 8.91 | CN(CCCCc1c[nH]cn1)S(=O)(=O)CCc1ccc(Cl)cc1 [Example 85, N-[4-(4(5)-Imidazoyl)butyl]-N-methyl-2-(4-chlorophenyl)ethanesulfonamide] | – |
| – | O=S(=O)(Cc1ccc(Cl)cc1)NCCCCCCCCCCc1c[nH]cn1 [Example 34, N-[10-(4(5)-Imidazoyl)decyl]-(4-chlorophenyl)methanesulfonamide] | pK1 (binding assay) (Histamine H3; [3]): 7.23 |
| 10200 | COC(=O)[C@H](Cc1c[nH]cn1)NS(=O)(=O)c1ccc2ccccc2c1 [Example 73, 3-(4(5)-Imidazoyl)-2S-(2-naphthalene)sulfonamino-propionic Acid Methyl Ester] | Emax (H3 receptor; guinea pig, printed beside 4.99 in the line of Example 73, read-out: α (functional assay)): ~20% |
| – | C[C@H](NS(=O)(=O)NCCCCc1c[nH]cn1)c1ccccc1 [Example 81, N-[4-(4(5)-Imidazoyl)butyl]-N'-(1S-phenylethyl)-sulfamide] | Ki (Histamine H3; [2]): 145 nM |
| 170 | O=S(=O)(NCCc1c[nH]cn1)c1ccc(Cl)c(Cl)c1 [Example 16, N-[2-(4(5)-Imidazoyl)ethyl]-3,4-dichlorobenzenesulfonamide] | – |
| – | C[C@@H](NS(=O)(=O)NCCCCc1c[nH]cn1)c1ccccc1 [Example 80, N-[4-(4(5)-Imidazoyl)butyl]-N'-(1R-phenylethyl)-sulfamide] | Ki (Histamine H3; [2]): 174 nM |
| 2400 | O=S(=O)(NCCc1c[nH]cn1)c1ccccc1 [Example 2, N-[2-(4(5)-Imidazoyl)ethyl]-benzenesulfonamide] | – |
| 398 | O=S(=O)(CCCC1CCCCC1)NCCc1c[nH]cn1 [Example 4, N-[2-(4(5)-Imidazoyl)ethyl]-3-cyclohexylpropanesulfonamide] | – |
| – | O=S(=O)(Cc1ccc(Br)cc1)NCCCCc1c[nH]cn1 [Example 77, N-[4-(4(5)-Imidazoyl)butyl]-(4-bromophenyl)methanesulfonamide] | Ki (Histamine H3): 3.09 nM |
| – | O=S(=O)(NCCCCCc1c[nH]cn1)NCc1ccc(-c2ccccc2)cc1 [Example 82, N-[5-(4(5)-Imidazoyl)pentyl]-N'-(4-biphenyl)methyl-sulfamide] | Ki (Histamine H3; [2]): 27.5 nM |
| 537 | O=S(=O)(NCCc1c[nH]cn1)c1cccc2ccccc12 [Example 3, N-[2-(4(5)-Imidazoyl)ethyl]-1-naphthalenesulfonamide] | – |
| 7.94 | O=S(=O)(Cc1ccc(-c2ccccc2)cc1)NCCCCc1c[nH]cn1 [Example 84, N-[4-(4(5)-Imidazoyl)butyl]-(4-biphenyl)methanesulfonamide] | – |
| – | O=S(=O)(Cc1ccc(C(F)(F)F)cc1)NCCCCc1c[nH]cn1 [Example 78, N-[4-(4(5)-Imidazoyl)butyl]-(4-trifluoromethylphenyl)methanesulfonamide] | Ki (Histamine H3; [2]): 3.55 nM |
| – | O=S(=O)(NCCCCc1c[nH]cn1)NCC12CC3CC(CC(C3)C1)C2 [Example 52, N-[4-(4(5)-Imidazoyl)butyl]-N'-adamant-1-ylmethyl-sulfamide] | Ki (Histamine H3; [2]): 200 nM |
| 955 | O=S(=O)(N[C@@H]1C[C@H]1c1c[nH]cn1)c1ccc2ccccc2c1 (relative stereo) [Example 72, N-[2-(4(5)-Imidazoyl)-trans-cyclopropyl]-2-naphthalenesulfonamide] | – |
| 7760 | O=S(=O)(NCCCc1c[nH]cn1)c1ccccc1 [Example 27, N-[3-(4(5)-Imidazoyl)propyl]-benzenesulfonamide] | – |

| SMILES | Kb (H3 receptor; [1]) [nM] | other results |
| --- | --- | --- |
| O=S(=O)(NCCCc1c[nH]cn1)NCc1ccc(Cl)cc1 [Example 14, N-[3-(4(5)-Imidazoyl)propyl]-N'-(4-chlorophenyl)methyl-sulfamide] | 91.2 | pK1 (binding assay) (Histamine H3; [3]): 7.28 |
| O=S(=O)(CCCc1ccccc1)NCCc1c[nH]cn1 [Example 18, N-[2-(4(5)-Imidazoyl)ethyl]-3-phenylpropanesulfonamide] | 162 | – |
| O=S(=O)(Cc1ccc(Cl)cc1)NCCCc1c[nH]cn1 [Example 26, N-[3-(4(5)-Imidazoyl)propyl]-(4-chlorophenyl)methanesulfonamide] | 513 | – |
| O=S(=O)(NCCc1c[nH]cn1)NCc1ccc(Cl)cc1 [Example 37, N-[2-(4(5)-Imidazoyl)ethyl]-N'-(4-chlorophenyl)methyl-sulfamide] | 1950 | – |
| O=S(=O)(CCc1ccccc1)NCCc1c[nH]cn1 [Example 17, N-[2-(4(5)-Imidazoyl)ethyl]-2-phenylethanesulfonamide] | 447 | – |
| O=S(=O)(NCCCc1c[nH]cn1)NCc1ccccc1 [Example 36, N-[3-(4(5)-Imidazoyl)propyl]-N'-phenylmethyl-sulfamide] | 692 | – |
